In patent US20210330611A1, “THERAPY FOR NEUROLOGICAL DISEASES/DISORDERS” (priority 2020, published 2021):
“And” between values parts separate entries of the source, which are not always exact repeats. Equal values may be shown once. Where a name gives a salt, the structure may show the parent alone. Read-outs that look alike come from different tables or passages of the source.

Key:
Assay type in all cases: cell-based, rat
[1] = test system: fibrin-induced microglia activation; assay: Image-based assay of fibrin-induced microglia activation (HTS and dose response); conditions: for inhibition at 10 µM: read-out: Fibrin % inhibition
[2] = test system: fibrin- and LPS-induced microglia activation; assay: cells
[3] = test system: LPS-induced microglia activation; assay: Image-based assay of LPS-induced microglia activation (HTS and dose response); conditions: for inhibition at 10 µM: read-out: LPS % inhibition
[4] = Rattus norvegicus, Microglia, primary microglia HTS, fibrin stimulation, compounds at 10 μM
[5] = quadrant by fibrin and LPS inhibition, HTS at 10 μM
[6] = Rattus norvegicus, Microglia, primary microglia HTS, LPS stimulation, compounds at 10 μM
[7] = Rattus norvegicus, Microglia, 48 h
[8] = primary microglia HTS, fibrin stimulation, increased cell size (>800 μm^2) as marker of activation
[9] = quadrant by fibrin and LPS inhibition in HTS of 1907 compounds
[10] = primary microglia HTS, LPS stimulation, increased cell size (>800 μm^2) as marker of activation
[11] = classification by fibrin and LPS inhibition, HTS at 10 μM
[12] = Rattus norvegicus, Microglia, primary microglia HTS, fibrin stimulation, increased cell size (>800 μm^2) as marker of activation
[13] = Rattus norvegicus, Microglia, 48 h, primary microglia HTS, LPS stimulation, increased cell size (>800 μm^2) as marker of activation

Compound: Cc1cc(NS(=O)(=O)c2ccc(N)cc2)no1 [Sulfamethoxazole]
- inhibition at 10 µM ([1]; Rattus norvegicus, Microglia): -17%
- Quadrant (FIG. 5b) [2]: Q4
- inhibition at 10 µM ([3]; Rattus norvegicus, Microglia): 17%

Compound: COc1ccc(C(=O)N2CCCC2=O)cc1 [Aniracetam]
- inhibition at 10 µM [1, 4]: 6%
- Quadrant (FIG. 5b) [2, 5]: Q4
- inhibition at 10 µM [3, 6]: 4%

Compound: CNCCC(Oc1ccc(C(F)(F)F)cc1)c1ccccc1.Cl (stereo not drawn) [Fluoxetine Hydrochloride, Fluoxetine]
- Fibrin % inhibition [1]: 46%
- Quadrant (FIG. 5b) [2]: Q1
- LPS % inhibition [3]: 65%

Compound: Nc1ccc(S(N)(=O)=O)cc1 [Sulfanilamide]
- inhibition at 10 µM ([1]; Rattus norvegicus, Microglia): -14%
- Quadrant (FIG. 5b) [2]: Q4
- inhibition at 10 µM ([3]; Rattus norvegicus, Microglia): 11%

Compound: CS(=O)(=O)Nc1ccc([N+](=O)[O-])cc1Oc1ccccc1 [Nimesulide]
- inhibition at 10 µM ([1]; Rattus norvegicus, Microglia): -19%
- Quadrant (FIG. 5b) [2]: Q4
- inhibition at 10 µM [3, 7]: 13%

Compound: C/C=C/c1ccc(OC)cc1 [Anethole]
- inhibition at 10 µM [1, 4]: -37%
- Quadrant (FIG. 5b) [2, 5]: Q4
- inhibition at 10 µM [3, 6]: 13%

Compound: C#CC(C)(O)CC (stereo not drawn) [Meparfylon]
- Fibrin % inhibition [1, 8]: −49%
- Quadrant (FIG. 5b) [2, 9]: Q4
- LPS % inhibition [3, 10]: 3%

Compound: C[C@]12CC[C@@H]3c4ccc(O)cc4CC[C@H]3[C@@H]1C[C@H](O)[C@@H]2O [Epiestriol]
- inhibition at 10 µM ([1]; Rattus norvegicus, Microglia): -25%
- Quadrant (FIG. 5b) [2]: Q4
- inhibition at 10 µM ([3]; Rattus norvegicus, Microglia): 6%

Compound: O=C(O)Cc1ccccc1Nc1c(Cl)cccc1Cl [Diclofenac]
- inhibition at 10 µM [1, 4]: -27%
- Quadrant (FIG. 5b) [2, 11]: Q4
- inhibition at 10 µM [3, 6]: 12%

Compound: O=C1C=C2CC3(O)COc4cc(O)ccc4C3=C2C=C1O (stereo not drawn) [brazilein]
- IC50 ([1]; Rattus norvegicus, Microglia, Table 7, read-out: fib_IC50): 1.47 µM
- Activity ([2]; Table 7, fib = fibrin, LPS, tox = toxicity): fib/LPS
- IC50 ([3]; Rattus norvegicus, Microglia, Table 7, read-out: LPS_IC50): 2.17 µM

Compound: CCCNCC(O)COc1ccccc1C(=O)CCc1ccccc1 (stereo not drawn) [Propafenone]
- inhibition at 10 µM ([1]; Rattus norvegicus, Microglia): 16%
- Quadrant (FIG. 5b) [2]: Q4
- inhibition at 10 µM [3, 7]: 21%

Compound: CN1CCCCC1CCN1c2ccccc2Sc2ccc([S+](C)[O-])cc21 (stereo not drawn) [Mesoridazine]
- inhibition at 10 µM ([1]; Rattus norvegicus, Microglia): -5%

Compound: CN1CCc2cccc3c2[C@H]1Cc1ccc(O)c(O)c1-3 [Apomorphine Hydrochloride]
- inhibition at 10 µM ([1]; Rattus norvegicus, Microglia): 11%
- Quadrant (FIG. 5b) [2]: Q4
- inhibition at 10 µM ([3]; Rattus norvegicus, Microglia): -4%

Compound: N.N.[Cl][Pt][Cl] [Cisplatin]
- Fibrin % inhibition ([1]; primary HTS, 10 μM, fibrin-stimulated primary microglia): −13%
- Quadrant (FIG. 5b) ([2]; primary HTS, 10 μM): Q4
- LPS % inhibition ([3]; primary HTS, 10 μM, LPS-stimulated primary microglia): 20%

Compound: C[N+]1(C)CCC(OC(=O)C(O)(c2ccccc2)C2CCCC2)C1 (stereo not drawn) [Glycopyrrolate]
- inhibition at 10 µM ([1]; Rattus norvegicus, Microglia): -33%
- Quadrant (FIG. 5b) [2]: Q4
- inhibition at 10 µM [3, 7]: 3%

Compound: CC(C)n1c(/C=C/C(O)CC(O)CC(=O)O)c(-c2ccc(F)cc2)c2ccccc21 (stereo not drawn) [Fluvastatin]
- inhibition at 10 µM [1, 12]: 110%
- Quadrant (FIG. 5b) [2, 9]: Q2
- inhibition at 10 µM [3, 13]: 101%

Compound: O=C(O)COCCN1CCN([C@H](c2ccccc2)c2ccc(Cl)cc2)CC1 [Levocetirizine Dihydrochloride]
- inhibition at 10 µM ([1]; Rattus norvegicus, Microglia): -44%
- Quadrant (FIG. 5b) [2]: Q4
- inhibition at 10 µM [3, 7]: -2%

Compound: CN(C)CCOC(c1ccccc1)c1ccccc1 [Diphenhydramine]
- inhibition at 10 µM ([1]; Rattus norvegicus, Microglia): -47%
- Quadrant (FIG. 5b) [2]: Q4
- inhibition at 10 µM ([3]; Rattus norvegicus, Microglia): 15%

Compound: CC(C)c1c(C(=O)Nc2ccccc2)c(-c2ccccc2)c(-c2ccc(F)cc2)n1CC[C@@H](O)C[C@@H](O)CC(=O)[O-].CC(C)c1c(C(=O)Nc2ccccc2)c(-c2ccccc2)c(-c2ccc(F)cc2)n1CC[C@@H](O)C[C@@H](O)CC(=O)[O-].[Ca+2] [Atorvastatin calcium, reference compound]
- IC50 ([1]; read-out: Fibrin IC50): 0.6 µM
- IC50 ([1]; read-out: Fibrin IC50 (uM) (Suppl. Table 7)): 0.6 µM
- Cherry-picked Hit (Suppl. Table 7) [2]: HIT (key: HIT: Hits were defined as molecules that exhibited greater than 50% inhibition of either fibrin or LPS activation)
- Hit [2]: HIT (key: HIT: Hits were defined as molecules that exhibited greater than 50% inhibition of either fibrin or LPS activation)
- Quadrant (FIG. 5b) [2]: Q2
- LPS % inhibition [3]: 88%
- IC50 ([3]; read-out: LPS IC50): 3 µM
- IC50 ([3]; read-out: LPS IC50 (uM) (Suppl. Table 7)): 3 µM

Compound: Nc1nc2nc[nH]c2c(=S)[nH]1 [Tioguanine]
- inhibition at 10 µM ([1]; Rattus norvegicus, Microglia): 12%
- Quadrant (FIG. 5b) [2]: Q4
- inhibition at 10 µM ([3]; Rattus norvegicus, Microglia): 18%

Compound: COCc1c(C(C)C)nc(C(C)C)c(/C=C/[C@@H](O)C[C@@H](O)CC(=O)O)c1-c1ccc(F)cc1 [Cerivastatin, Cerivastatin Na]
- Fibrin % inhibition [1]: 103%
- Quadrant (FIG. 5b) [2]: Q2
- LPS % inhibition [3]: 101%

Compound: CC(C)(CO)[C@@H](O)C(=O)NCCC(=O)NCCSSCCNC(=O)CCNC(=O)[C@H](O)C(C)(C)CO [Pantethine]
- inhibition at 10 µM ([1]; Rattus norvegicus, Microglia): -53%
- Quadrant (FIG. 5b) [2]: Q4
- inhibition at 10 µM [3, 7]: 7%

Compound: COc1ccccc1OCCNCC(O)COc1cccc2[nH]c3ccccc3c12 (stereo not drawn) [Carvedilol, Carvedilol Phosphate]
- Quadrant (FIG. 5b) [2]: Q4
- LPS % inhibition ([3]; 10 µM): 15% and 19%

Compound: CN1CCN(CCCN2c3ccccc3Sc3ccc(Cl)cc32)CC1 [Prochlorperazine dimaleate, reference compound]
- Activity [2]: fib/LPS
- Quadrant (FIG. 5b) [2]: Q4

Compound: Cc1cc2nc3c(=O)[nH]c(=O)nc-3n(C[C@H](O)[C@H](O)[C@H](O)CO)c2cc1C [Riboflavin]
- Quadrant (FIG. 5b) [2]: Q4

Compound: Cc1cn([C@H]2C[C@H](N=[N+]=[N-])[C@@H](CO)O2)c(=O)[nH]c1=O [Zidovudine]
- Quadrant (FIG. 5b) [2]: Q4
- LPS % inhibition ([3]; 10 µM): 13%
- inhibition at 10 µM ([3]; Rattus norvegicus, Microglia): 9%

Compound: OCc1cccnc1 [Nicotinyl Alcohol Tartrate]
- inhibition at 10 µM [1, 12]: -5%
- inhibition at 10 µM [3, 13]: 4%

Compound: CN1[C@@H]2CC[C@H]1C[C@@H](OC(=O)C(CO)c1ccccc1)C2 (stereo partly drawn) [Atropine]
- inhibition at 10 µM ([1]; Rattus norvegicus, Microglia): -21%
- inhibition at 10 µM ([3]; Rattus norvegicus, Microglia): 4%

Compound: C#CC1(O)CC[C@H]2[C@@H]3CCC4=CC(=O)CC[C@@H]4[C@H]3CC[C@@]21CC (stereo partly drawn) [Norgestrel, Levonorgestrel]
- Fibrin % inhibition [1, 8]: 13%
- LPS % inhibition [3, 10]: 14%

Compound: Dimenhydrinate
- Quadrant (FIG. 5b) [2, 11]: Q4

Compound: CCn1cc(C(=O)O)c(=O)c2cc(F)c(N3CCN(C)CC3)cc21 [Pefloxacin]
- inhibition at 10 µM [3, 7]: 21%

Compound: O=C(O)c1cn(C2CC2)c2cc(N3CCNCC3)c(F)cc2c1=O [Ciprofloxacin]
- inhibition at 10 µM ([1]; Rattus norvegicus, Microglia): -30%
- inhibition at 10 µM ([3]; Rattus norvegicus, Microglia): 17%

Compound: CC(=O)S[C@@H]1CC2=CC(=O)CC[C@]2(C)[C@H]2CC[C@@]3(C)[C@@H](CC[C@@]34CCC(=O)O4)[C@H]12 [Spironolactone]
- Quadrant (FIG. 5b) [2]: Q4
- inhibition at 10 µM [3, 7]: 20%

Compound: CN1[C@@H]2CC[C@H]1C[C@@H](OC(=O)[C@H](CO)c1ccccc1)C2 [Hyoscyamine]
- inhibition at 10 µM [3, 7]: 13%

Compound: C[C@H]1O[C@@H](O[C@H]2[C@@H](O)C[C@H](O[C@H]3[C@@H](O)C[C@H](O[C@H]4CC[C@@]5(C)[C@H](CC[C@@H]6[C@@H]5C[C@@H](O)[C@]5(C)[C@@H](C7=CC(=O)OC7)CC[C@]65O)C4)O[C@@H]3C)O[C@@H]2C)C[C@H](O)[C@@H]1O [Digoxin]
- Quadrant (FIG. 5b) [2]: Q3 and Q4

Compound: CC[C@H]1OC(=O)[C@H](C)[C@@H](O[C@H]2C[C@@](C)(OC)[C@@H](O)[C@H](C)O2)[C@H](C)[C@@H](O[C@@H]2O[C@H](C)C[C@H](N(C)C)[C@H]2O)[C@](C)(O)C[C@@H](C)C(=O)[C@H](C)[C@@H](O)[C@]1(C)O [Erythromycin]
- Quadrant (FIG. 5b) [2, 11]: Q4
- inhibition at 10 µM [3, 6]: 20%
- LPS % inhibition ([3]; primary microglia HTS, LPS stimulation, compounds at 10 μM, 10 µM): 13%

Compound: C[C@]12CC[C@@H]3c4ccc(O)cc4C[C@@H](CCCCCCCCC[S+]([O-])CCCC(F)(F)C(F)(F)F)[C@H]3[C@@H]1CC[C@@H]2O (stereo partly drawn) [Fulvestrant]
- Quadrant (FIG. 5b) [2, 9]: Q4
- inhibition at 10 µM ([3]; Rattus norvegicus, Microglia, 48 h, primary microglia HTS, LPS stimulation, activation = cell size >800 μm2): 15%
